The test system of data set [1] is panel of 60 human cancer cell lines. The experiment in a line: NCI DTP in vitro anticancer screen, panel of 60 human cancer cell lines. It is filed as cell-based. As to conditions: average over human tumour cell lines of the NCI panel (FIG. 1); read-out: average GI50 (growth inhibition by 50%). The protocol:
For example, the following methodology, which is currently employed by the NCI, can be used to assess the GI50 of a candidate compound of Formula I in the selected cancer cell lines. Briefly, cell suspensions are diluted (5000-40,000 cells per well) and 100 μL of the diluted cell suspension is added into 96-well microtiter plates. Inoculates are allowed a preincubation period of 24 h at 37° C. for stabilization. Dilutions at twice the intended test concentration of the candidate compound are added at time zero in 100 μL aliquots to the microtiter plate wells. Test compounds are generally evaluated at five 10-fold dilutions. In routine testing, the highest well concentration is usually 10E-4 M, but this may be adjusted depending on the compound being tested. The cells are incubated with the test compound for 48 h in 5% CO2 atmosphere and 100% humidity. The cells are then assayed by using the sulforhodamine B assay (see, for example, Skehan, P., et al. (1990) JNCI, J. Natl. Cancer Inst. 82, 1107-1112; and Chen, S. F., et al. (1990) Proc. Am. Assoc. Cancer Res. 31, A2644) employing a plate reader which can be used to read the optical densities.
Compounds 2 and 3 were evaluated for their antiproliferative effects in a panel of 60 human cancer cell lines as part of the in vitro anticancer screening services provided by the DTP (Developmental Therapeutics Program) of the US National Cancer Institute (NCI).
Analysis of the effects of compounds of Formula I on in vitro and in vivo cell growth inhibition were performed utilizing the methods as described in the preceding Examples. As shown in Example 12, cell growth inhibition by the parental compound 3 was screened by National Cancer Institute 60-cell line assay and leukemia, non-small cell cancer, colon cancer, renal cancer and prostate cancer panels were especially sensitive to compound 3.

In data set [2] the test system is human colon carcinoma HT-29 cells. The data set can be described thus: XTT cell proliferation assay, HT-29. The note with it: Homo sapiens, HT-29, XTT, read-out: IC50. The class given is cell-based. In short, it runs like this: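 HT-29 cells in McCoy's 5A with 10% FBS, 37° C., 5% CO2, exposed to varying compound concentrations for 6-7 days. Viable cells quantified by XTT reduction to formazan; growth inhibition expressed as IC50 (μM).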
(In general: Formazan colour is commonly taken as a measure of viable cells.)

The nature of another data set: Solubility in water. The note with it: HCl salt of compound 2. It is filed as physicochemical. The protocol:
A solution of 0.200 g of compound 2 (0.483 mmol) in DMF was treated with HCL(g) until no more precipitation was observed. The solid was then filtered, washed with dichloromethane and hexanes, dried in vacuum.

Each structure is given as a SMILES string. pIC50: −log10 of the molar value. Where two headings read alike, the source gives them in different places.

Take `Brc1ccc2[nH]cc(-c3nc4c5cccnc5c5ncccc5c4[nH]3)c2c1` [Compound 2]: the GI50 in data set [1] is less than 2000 nM. Moreover, the pIC50 in data set [2] (6-7 days, Table 3) is 6.15. Besides, the IC50 in data set [2] (as Example 13, Table 7) is 1.5 µg/mL. The solubility in water entry in the data set “Solubility in water” is “soluble in water”.

By GI50 is commonly meant the concentration giving 50% growth inhibition. A word on the pIC50: it is −log10 of the IC50, conventionally taken in molar units. In general, IC50 refers to the point on the concentration scale where inhibition reaches its midpoint.

These data come from patent publication US8148392B2, “2-indolyl imidazo [4,5-d] phenanthroline derivatives and their use in the treatment of cancer” (Lorus Therapeutics Inc., priority 2005, dated 2012).
